Data: publication PMC8346900 (Proceedings of the National Academy of Sciences of the …, 2021)
Entries after “also recorded” stand apart in the source; their conditions may differ.

Legend:
[1] = tested on: CaMKIIα Thr286 autophosphorylation; assay: Thr286 autophosphorylation by Western blot in cultured cortical neurons; type: cell-based, mouse; details: 1 h, HOCPCA 3 mM
recombinant CaMKIIα = recombinant CaMKIIα (Homo sapiens, UniProt Q9UQM7); assay: ADP-Glo assay, syntide-II phosphorylation; type: biochemical; details: fixed concentration of CaM, wide concentration span
[2] = target: T1, CaMKIIα wild-type (WT) hub protein (Homo sapiens, UniProt Q9UQM7); assay: Intrinsic tryptophan fluorescence; type: binding; details: increasing concentrations
T1 sequence (Q9UQM7 345-475): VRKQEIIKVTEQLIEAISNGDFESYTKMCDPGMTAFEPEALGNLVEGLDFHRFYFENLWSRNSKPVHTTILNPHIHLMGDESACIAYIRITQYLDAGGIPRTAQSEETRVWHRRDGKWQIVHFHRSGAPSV

CaMKIIα WT hub = target: T2, CaMKIIα WT hub (Homo sapiens, UniProt Q9UQM7); assay: Thermal shift assay by differential scanning fluorimetry; type: binding; details: saturating concentrations, pH 6
T2 sequence (Q9UQM7 345-475): T1 sequence (Q9UQM7 345-475)

[3] = Body temperature recordings in mice; type: in vivo, mouse; details: C57/B6 mice, i.p.; GHB 275 mg/kg, HOCPCA 175 mg/kg
[4] = tested on: mouse hippocampal slices (CA3–CA1); assay: Ex vivo LTP recordings in hippocampal slices; details: bath application, 100 μM, 100 Hz induction
C57/B6 mice = assay: Photothrombotic stroke model of focal ischemia
GABAB receptors = details: cited from earlier work
cortical neurons = assay: Glu/Gly excitotoxicity in cultured cortical neurons, LDH release; type: cell-based, mouse
hippocampal neurons = assay: Glu excitotoxicity in cultured hippocampal neurons, live/dead staining; type: cell-based, mouse; details: for Cell survival after Glu: Camk2a-/- neurons
[5] = tested on: CaMKIIα (mouse brain slices); assay: In vitro autoradiography on Camk2a and Camk2b +/+ and -/- mouse brain slices; type: binding
[6] = tested on: CaMKIIβ/γ/δ subtypes; CaMKIIα Δhub; type: binding, rat; details: heterologously expressed in HEK293T cells
[7] = target: CaMKIIβ/γ/δ subtypes; CaMKIIα Δhub (Rattus norvegicus, UniProt P11275); type: binding; details: HEK293T cells transiently expressing Δhub
[8] = 175 mg/kg at 3, 6, 12 h poststroke

Sequence of recombinant CaMKIIα (Q9UQM7 whole entry): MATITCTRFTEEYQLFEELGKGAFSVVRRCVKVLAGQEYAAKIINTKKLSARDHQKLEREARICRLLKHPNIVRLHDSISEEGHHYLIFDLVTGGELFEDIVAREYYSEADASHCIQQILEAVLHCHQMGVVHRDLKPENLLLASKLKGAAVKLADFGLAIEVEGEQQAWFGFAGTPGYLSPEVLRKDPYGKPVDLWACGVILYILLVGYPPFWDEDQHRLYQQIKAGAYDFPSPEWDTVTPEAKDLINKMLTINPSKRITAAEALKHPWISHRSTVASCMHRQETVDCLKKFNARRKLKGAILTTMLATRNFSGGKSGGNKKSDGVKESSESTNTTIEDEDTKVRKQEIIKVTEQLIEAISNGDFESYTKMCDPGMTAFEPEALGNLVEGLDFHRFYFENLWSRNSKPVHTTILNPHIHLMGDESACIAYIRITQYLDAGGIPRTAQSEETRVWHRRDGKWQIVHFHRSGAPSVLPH
Sequence of CaMKIIβ/γ/δ subtypes; CaMKIIα Δhub (Rattus norvegicus, UniProt P11275) (P11275 1-337, stated change not applied): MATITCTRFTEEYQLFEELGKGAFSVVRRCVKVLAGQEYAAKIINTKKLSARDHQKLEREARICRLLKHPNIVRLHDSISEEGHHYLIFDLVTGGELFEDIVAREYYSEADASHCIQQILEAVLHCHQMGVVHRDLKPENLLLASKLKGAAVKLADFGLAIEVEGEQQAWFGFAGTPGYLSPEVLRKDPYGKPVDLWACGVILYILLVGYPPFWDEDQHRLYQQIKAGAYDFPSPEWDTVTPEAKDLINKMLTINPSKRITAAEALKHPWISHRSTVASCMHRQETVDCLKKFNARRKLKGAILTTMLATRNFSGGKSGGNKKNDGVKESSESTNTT

COc1ccc(S(=O)(=O)N(CCO)c2ccccc2CN(C)C/C=C/c2ccc(Cl)cc2)cc1 [KN93, reference compound]
Thr286 autophosphorylation ([1]; basal conditions): significant inhibition

KRPPKLGQIGRSKRVVIEDDR [CN21]
Effect on syntide phosphorylation by CaMKIIα (recombinant CaMKIIα): concentration-dependent inhibition

O=C(O)C1=CC(O)CC1 (stereo not drawn) [HOCPCA, 3-hydroxycyclopent-1-enecarboxylic acid]
Quenching of Trp403 fluorescence [2]: not seen | Thr286 autophosphorylation ([1]; Ca2+-stimulated conditions): did not affect | Thr286 autophosphorylation ([1]; basal conditions): did not affect | maximum Tm increase (maximum ∆Tm) (CaMKIIα WT hub): 15 °C | Effect on syntide phosphorylation by CaMKIIα (recombinant CaMKIIα): no effect | Effect on body temperature [3]: no hypothermia | Long-term potentiation (LTP) [4]: did not inhibit | Forelimb asymmetry in the cylinder test (C57/B6 mice; [8]): improvements | Motor coordination, paw placement on grid-walking task (C57/B6 mice; [8]): improvements | reduction in infarct volume (C57/B6 mice; 175 mg/kg at 3, 6, and 12 h poststroke, measured 7 d poststroke, young male mice): 40 to 50% | Transport of neuroanatomical tracer biotinylated dextran amine (C57/B6 mice; 175 mg/kg i.p., 14 days post-stroke): reversal of the stroke-induced decrease | Compound action potentials (CAPs), corpus callosum (C57/B6 mice; 175 mg/kg single treatment 3 h poststroke, 14 d poststroke): 50 to 60 % of control | Treatment effect of single dose (C57/B6 mice; aged female mice, 175 mg/kg): significant treatment effects | Treatment effect of single dose (C57/B6 mice; young males, 90 mg/kg, 3 h poststroke): significant treatment effects | Affinity to native GABAB receptors (GABAB receptors; at 1 mM): no affinity; also recorded: lack affinity | Cell survival (LDH) (cortical neurons; 1 mM applied immediately or 30 min after Glu stimulation): did not have any effect | Cell death (LDH) (cortical neurons; applied 1 h after Glu stimulus, concentration dependent (0.1 to 3 mM)): significantly reduced cell death | mean recovery compared with the Glu-only condition (live/dead ratio) (hippocampal neurons; Camk2a+/+ neurons, trend, not significant): 18% | Cell survival after Glu (hippocampal neurons): neither tat-CN21 nor HOCPCA improved cell survival | Cell live/dead ratio (hippocampal neurons; FvB hippocampal cultures, 1 mM, 1 h poststimulation, 400 μM Glu): significantly increased

O=C(O)CCCO [GHB, γ-hydroxybutyrate, reference compound]
maximum Tm increase (maximum ∆Tm) (CaMKIIα WT hub): 13 °C | Effect on syntide phosphorylation by CaMKIIα (recombinant CaMKIIα): no effect | Effect on body temperature [3]: strong hypothermia | Ki (GABAB receptors; GABAB receptors): 230 µM

GRKKRRQRRRKRPPKLGQIGRSKRVVIEDDR [tat-CN21, reference compound]
Cell death (LDH) (cortical neurons; tat-CN21 control (10 μM)): significantly reduced cell death | Live/dead ratio after Glu (hippocampal neurons; Camk2a+/+ neurons): significantly improved | Cell survival after Glu (hippocampal neurons): neither tat-CN21 nor HOCPCA improved cell survival

[3H]C1(O)C=C(C(=O)O)CC1 (stereo not drawn) [[3H]HOCPCA]
Binding to brain slices from Camk2a-/- mice [5]: complete lack of binding | Binding to brain tissue of Camk2a+/+, Camk2b+/+ and Camk2b-/- mice [5]: intact binding | Binding to CaMKIIβ/γ/δ subtypes [6]: no [^3H]HOCPCA binding was observed | Binding to CaMKIIα hub deletion mutant (Δhub) [7]: complete absence
